Data from patent US20150250782A1, “Methods and Compositions for Hypotensive Resuscitation” (Pharmazz, Inc., priority 2012, published 2015).

Columns and labels:
hemorrhaged rats [1] = assay: Fixed-pressure hemorrhage model, centhaquin dissolved in LR (100% SBV); assay type: in vivo, rat
Protocol: In the studies disclosed below, a rodent model of fixed-pressure hemorrhage without tissue trauma was used. This model limits factors that can influence the activity of a drug that is being investigated for the first time as a resuscitation agent. This hemorrhage model was made more severe by maintaining the hypotension for 30 minutes from the onset of hemorrhage to reach a base deficit of greater than −12 mEq/L (Gulati, Sen et al. 1997). In this irreversible situation, compensatory mechanisms fail (decompensatory phase), and a tremendous decrease in blood flow to all organs occurs, causing hypoperfusion leading to tissue hypoxia and end-organ failure (Gulati, Sen et al. 1997).
A rodent model of fixed-pressure hemorrhage without tissue trauma was used in a preliminary study. This hemorrhage model was made more severe by maintaining the hypotension for 30 min from the onset of hemorrhage to reach a base deficit of greater than −12 mEq/L (Gulati, Sen et al. 1997). […] Following groups were studied: Lactated Ringer's solution (LR-100) (100% shed blood volume (SBV)), or centhaquin (free base) (0.017, 0.05 and 0.15 mg/kg) dissolved in LR (100% SBV), or LR-300 (300% SBV).

hemorrhaged rats [2] = assay: Fixed-pressure hemorrhage model, centhaquin in hypertonic saline; assay type: in vivo, rat
Protocol: A sham group of rats was cannulated, but not hemorrhaged. A vehicle group received hypertonic saline. Treatment groups received centhaquin (free base) (0.006, 0.017, or 0.05 mg/kg) in hypertonic saline. The values are expressed as mean±S.E.M. with n=6 rats in each group.
FIGS. 9-12 show the effect of centhaquin on blood lactate and base deficit in hemorrhaged rats (FIG. 9); on mean arterial pressure and heart rate (FIG. 10); on cardiac output and stroke volume (FIG. 11); and on systemic vascular resistance and stroke work (FIG. 12). Like the tests of FIG. 8, a sham group of rats was cannulated but not hemorrhaged, a vehicle group received hypertonic saline, and treatment groups received free base centhaquin (0.006, 0.017, or 0.05 mg/kg) in hypertonic saline. The values are expressed as mean±S.E.M. with n=6 rats in each group. *p<0.05 compared to baseline, #p<0.05 compared to hemorrhage, Δp<0.05 compared to vehicle treated group.
FIG. 13 is a plot of fraction survival vs. time for groups of hemorrhaged rats. The sham group of rats was cannulated, but not hemorrhaged. The vehicle group received hypertonic saline, while treatment groups received centhaquin (free base) (0.006, 0.017, or 0.05 mg/kg) in hypertonic saline.
Centhaquin increased the survival time of hemorrhaged rats compared to hypertonic saline treatment. Median survival time for 50% survival rate of rats treated with hypertonic saline was 137±12 minutes, while for rats treated with centhaquin it was 375±25 minutes. Fraction survival at 250 min was 0 when resuscitated with hypertonic saline, while treatment with centhaquin improved the fraction survival to 0.8. Even at 480 min after resuscitation with centhaquin, the fraction survival was 0.2. […] The findings of the present study are novel, unexpected, and are important due to recent reports of large clinical studies showing hypertonic saline has no benefit over normal saline in patients with hypovolemic shock or severe traumatic brain injury (Bulger, May et al. 2010; Bulger, May et al. 2011).

α2 adrenergic receptors = assay: Centhaquin resuscitation with and without α2 adrenergic antagonists: arterial blood hematocrit, pH, gases, electrolytes, lactate; assay type: in vivo, rat; design: pCO2 / pO2 / Na+ / K+ / Ca++ / Lactate: unit not given beside the values
[3] = tested on: isolated perfused rabbit heart; details: Bhatnagar, Pande et al. 1985; cited from earlier work
dog femoral artery = details: 10 and 20 μg locally into femoral artery; Srimal, Mason et al. 1990; cited from earlier work
[4] = tested on: release of norepinephrine; details: 0.1, 1.0 and 10.0 μg/ml; Bhatnagar, Pande et al. 1985; cited from earlier work
[5] = 0.05 mg/kg, 60 min following resuscitation

SMILES: Cc1cccc(N2CCN(CCc3ccc4ccccc4n3)CC2)c1 [centhaquin, 2-[2-(4-(3-methyphenyl)-1-piperazinyl)ethyl]-quinoline]
- decrease in systemic vascular resistance (hemorrhaged rats [1]; 0.017 mg/kg): 57%
- increase in MAP (hemorrhaged rats [1]; 0.017 mg/kg): 55%
- increase in cardiac output (hemorrhaged rats [1]; 0.017 mg/kg): 260%
- survival time (hemorrhaged rats [1]; 0.017 mg/kg in LR (100% SBV)): 291 ± 57 min
- blood lactate levels (hemorrhaged rats [1]; 0.017 mg/kg, 60 min following resuscitation): 3.55 ± 0.07 mmol/L
- decrease in systemic vascular resistance (hemorrhaged rats [1]; 0.05 mg/kg): 41%
- increase in cardiac output (hemorrhaged rats [1]; 0.05 mg/kg): 180%
- survival time (hemorrhaged rats [1]; 0.05 mg/kg in LR (100% SBV)): 387 ± 39 min
- resuscitation compared to LR-300 (hemorrhaged rats [1]; 0.05 mg/kg in LR-100 vs LR-300 (300% SBV)): more effective in resuscitation
- blood lactate levels (hemorrhaged rats [1]; [5]): 4.08 ± 0.28 mmol/L
- increase in MAP (hemorrhaged rats [1]; [5]): 59%
- survival time compared to other groups (hemorrhaged rats [2]; 0.017 mg/kg): maximal survival time
- Fraction survival (hemorrhaged rats [2]; at 250 min): 0.8
- Fraction survival (hemorrhaged rats [2]; at 480 min after resuscitation): 0.2
- Median survival time for 50% survival rate (hemorrhaged rats [2]; centhaquin in hypertonic saline): 375 ± 25 min
- Ca++ (α2 adrenergic receptors; Baseline): 1.15 ± 0.02
- Hematocrit (α2 adrenergic receptors; Baseline): 54.67 ± 2.03
- K+ (α2 adrenergic receptors; Baseline): 2.73 ± 1.07
- Lactate (α2 adrenergic receptors; Baseline): 3.17 ± 0.24
- Na+ (α2 adrenergic receptors; Baseline): 134.33 ± 0.88
- pCO2 (α2 adrenergic receptors; Baseline): 46.33 ± 1.67
- pH (α2 adrenergic receptors; Baseline): 7.34 ± 0.01
- pO2 (α2 adrenergic receptors; Baseline): 118.33 ± 6.77
- Ca++ (α2 adrenergic receptors; Hemorrhage): 1.22 ± 0.00
- Hematocrit (α2 adrenergic receptors; Hemorrhage): 37.67 ± 2.33
- K+ (α2 adrenergic receptors; Hemorrhage): 5.73 ± 0.30
- Lactate (α2 adrenergic receptors; Hemorrhage): 10.10 ± 0.70
- Na+ (α2 adrenergic receptors; Hemorrhage): 124.33 ± 1.86
- pCO2 (α2 adrenergic receptors; Hemorrhage): 27.33 ± 1.20
- pH (α2 adrenergic receptors; Hemorrhage): 7.24 ± 0.02
- pO2 (α2 adrenergic receptors; Hemorrhage): 124.00 ± 4.73
- Ca++ (α2 adrenergic receptors; Resuscitation 30 min): 1.17 ± 0.02
- Hematocrit (α2 adrenergic receptors; Resuscitation 30 min): 33.00 ± 1.53
- K+ (α2 adrenergic receptors; Resuscitation 30 min): 4.73 ± 0.09
- Lactate (α2 adrenergic receptors; Resuscitation 30 min): 5.80 ± 0.32
- Na+ (α2 adrenergic receptors; Resuscitation 30 min): 130.00 ± 0.08
- pCO2 (α2 adrenergic receptors; Resuscitation 30 min): 33.00 ± 0.58
- pH (α2 adrenergic receptors; Resuscitation 30 min): 7.29 ± 0.01
- pO2 (α2 adrenergic receptors; Resuscitation 30 min): 124.00 ± 4.51
- Ca++ (α2 adrenergic receptors; Resuscitation 60 min): 1.18 ± 0.03
- Hematocrit (α2 adrenergic receptors; Resuscitation 60 min): 32.67 ± 1.76
- K+ (α2 adrenergic receptors; Resuscitation 60 min): 4.60 ± 0.00
- Lactate (α2 adrenergic receptors; Resuscitation 60 min): 4.53 ± 0.38
- Na+ (α2 adrenergic receptors; Resuscitation 60 min): 128.00 ± 1.00
- pCO2 (α2 adrenergic receptors; Resuscitation 60 min): 33.33 ± 0.33
- pH (α2 adrenergic receptors; Resuscitation 60 min): 7.31 ± 0.01
- pO2 (α2 adrenergic receptors; Resuscitation 60 min): 121.67 ± 4.63
- Ca++ (α2 adrenergic receptors; Resuscitation 120 min): 1.18 ± 0.01
- Hematocrit (α2 adrenergic receptors; Resuscitation 120 min): 33.67 ± 2.03
- K+ (α2 adrenergic receptors; Resuscitation 120 min): 5.17 ± 0.15
- Lactate (α2 adrenergic receptors; Resuscitation 120 min): 5.67 ± 0.22
- Na+ (α2 adrenergic receptors; Resuscitation 120 min): 130.33 ± 0.33
- pCO2 (α2 adrenergic receptors; Resuscitation 120 min): 29.00 ± 1.15
- pH (α2 adrenergic receptors; Resuscitation 120 min): 7.28 ± 0.01
- pO2 (α2 adrenergic receptors; Resuscitation 120 min): 132.00 ± 6.69
- inotropic effect, ventricular contractions [3]: positive inotropic effect
- blood flow (dog femoral artery): increased blood flow
- norepinephrine release evoked by potassium chloride and dimethyl phenyl piperazinium chloride [4]: inhibited
- spontaneous release of norepinephrine [4]: initial increase, followed by a decrease
